Key:
[1] = target: T1, PIKFYVE (Homo sapiens, UniProt Q9Y2I7); test: NanoBRET TE Intracellular Kinase Assay, interaction of PIKFYVE and compounds in HEK293 cells; format: cell-based; conditions: IC50 class from BRET; HEK293 cells expressing PIKFYVE-NanoLuc; 2 hours incubation
T1 construct: host or cells: HEK293 (ATCC, CRL-1573)
Method in brief: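 HEK293 cells transiently expressing a PIKFYVE-NanoLuc fusion were incubated 2 h at 37 °C, 5% CO2 with compound plus NanoBRET tracer. BRET was read after adding Nano-Glo substrate, giving intracellular target engagement by tracer displacement.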

[2] = Microsomal metabolic stability assay; format: in vitro ADME, human or CD1 male mouse; conditions: Clint class; 1 μM compound, 0.5 mg/ml microsomes, NADPH, UDPGA, Alamethicin; species not given
Description: The microsomal metabolic stability assay was performed using pooled human or CD1 male mouse interspecies microsomes. Supplemental cofactors (NADPH, UDPGA) and microsomal membrane pore-forming factor (Alamethicin) were added to promote cytochrome P450 (CYP), UGT reactivity to the target compound. Test compounds (1 μM incubation concentration) and microsomes (0.5 mg/ml incubation concentration) were diluted in 0.1 M phosphate buffer, pH 7.4, and incubated (37° C.). The reaction was initiated by the addition of NADPH (1 mM), UDPGA (1 mM) and Alamethicin (25 μg/mg). The incubation times were 0, 5, 15, 30, and 45 minutes, and at each time point, the reaction was terminated by adding acetonitrile containing internal standard (IS)(1:3 ratio). The plate was then sealed, centrifuged (3000 rpm, 20 min, 4° C.), and the supernatant was analyzed by LC-MS/MS. Hepatic extraction ratio values were calculated from the measured in vitro clearance and Intrinsic clearance (Clint) values were calculated from the assay results, and the respective Clint values were categorized into Low, Medium, and High categories based on the reference document (ref. Prostaglandins & other lipid mediators 136 (2018): 90-95).

[3] = target: T2, human GST-PIKFYVE (Homo sapiens, UniProt Q9Y2I7); test: ADP-Glo kinase assay, enzyme inhibition activity against human PIKFYVE (Carna biosciences); format: biochemical; conditions: inhibitory activity at final compound concentration 10 nM; 1 hour at room temperature
T2 construct: GST; purchased Carna biosciences 11-118
Method in brief: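 Human GST-PIKFYVE (glutathione Sepharose-purified) was reacted with substrate and ATP for 1 h at room temperature in 50 mM MOPS, 1 mM DTT, pH 7.2, with compound at 10 nM final. ADP formed was read by ADP-Glo luminescence; inhibition was calculated against no-enzyme (100%) and no-compound (0%) controls.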

T1 sequence (Q9Y2I7 whole entry): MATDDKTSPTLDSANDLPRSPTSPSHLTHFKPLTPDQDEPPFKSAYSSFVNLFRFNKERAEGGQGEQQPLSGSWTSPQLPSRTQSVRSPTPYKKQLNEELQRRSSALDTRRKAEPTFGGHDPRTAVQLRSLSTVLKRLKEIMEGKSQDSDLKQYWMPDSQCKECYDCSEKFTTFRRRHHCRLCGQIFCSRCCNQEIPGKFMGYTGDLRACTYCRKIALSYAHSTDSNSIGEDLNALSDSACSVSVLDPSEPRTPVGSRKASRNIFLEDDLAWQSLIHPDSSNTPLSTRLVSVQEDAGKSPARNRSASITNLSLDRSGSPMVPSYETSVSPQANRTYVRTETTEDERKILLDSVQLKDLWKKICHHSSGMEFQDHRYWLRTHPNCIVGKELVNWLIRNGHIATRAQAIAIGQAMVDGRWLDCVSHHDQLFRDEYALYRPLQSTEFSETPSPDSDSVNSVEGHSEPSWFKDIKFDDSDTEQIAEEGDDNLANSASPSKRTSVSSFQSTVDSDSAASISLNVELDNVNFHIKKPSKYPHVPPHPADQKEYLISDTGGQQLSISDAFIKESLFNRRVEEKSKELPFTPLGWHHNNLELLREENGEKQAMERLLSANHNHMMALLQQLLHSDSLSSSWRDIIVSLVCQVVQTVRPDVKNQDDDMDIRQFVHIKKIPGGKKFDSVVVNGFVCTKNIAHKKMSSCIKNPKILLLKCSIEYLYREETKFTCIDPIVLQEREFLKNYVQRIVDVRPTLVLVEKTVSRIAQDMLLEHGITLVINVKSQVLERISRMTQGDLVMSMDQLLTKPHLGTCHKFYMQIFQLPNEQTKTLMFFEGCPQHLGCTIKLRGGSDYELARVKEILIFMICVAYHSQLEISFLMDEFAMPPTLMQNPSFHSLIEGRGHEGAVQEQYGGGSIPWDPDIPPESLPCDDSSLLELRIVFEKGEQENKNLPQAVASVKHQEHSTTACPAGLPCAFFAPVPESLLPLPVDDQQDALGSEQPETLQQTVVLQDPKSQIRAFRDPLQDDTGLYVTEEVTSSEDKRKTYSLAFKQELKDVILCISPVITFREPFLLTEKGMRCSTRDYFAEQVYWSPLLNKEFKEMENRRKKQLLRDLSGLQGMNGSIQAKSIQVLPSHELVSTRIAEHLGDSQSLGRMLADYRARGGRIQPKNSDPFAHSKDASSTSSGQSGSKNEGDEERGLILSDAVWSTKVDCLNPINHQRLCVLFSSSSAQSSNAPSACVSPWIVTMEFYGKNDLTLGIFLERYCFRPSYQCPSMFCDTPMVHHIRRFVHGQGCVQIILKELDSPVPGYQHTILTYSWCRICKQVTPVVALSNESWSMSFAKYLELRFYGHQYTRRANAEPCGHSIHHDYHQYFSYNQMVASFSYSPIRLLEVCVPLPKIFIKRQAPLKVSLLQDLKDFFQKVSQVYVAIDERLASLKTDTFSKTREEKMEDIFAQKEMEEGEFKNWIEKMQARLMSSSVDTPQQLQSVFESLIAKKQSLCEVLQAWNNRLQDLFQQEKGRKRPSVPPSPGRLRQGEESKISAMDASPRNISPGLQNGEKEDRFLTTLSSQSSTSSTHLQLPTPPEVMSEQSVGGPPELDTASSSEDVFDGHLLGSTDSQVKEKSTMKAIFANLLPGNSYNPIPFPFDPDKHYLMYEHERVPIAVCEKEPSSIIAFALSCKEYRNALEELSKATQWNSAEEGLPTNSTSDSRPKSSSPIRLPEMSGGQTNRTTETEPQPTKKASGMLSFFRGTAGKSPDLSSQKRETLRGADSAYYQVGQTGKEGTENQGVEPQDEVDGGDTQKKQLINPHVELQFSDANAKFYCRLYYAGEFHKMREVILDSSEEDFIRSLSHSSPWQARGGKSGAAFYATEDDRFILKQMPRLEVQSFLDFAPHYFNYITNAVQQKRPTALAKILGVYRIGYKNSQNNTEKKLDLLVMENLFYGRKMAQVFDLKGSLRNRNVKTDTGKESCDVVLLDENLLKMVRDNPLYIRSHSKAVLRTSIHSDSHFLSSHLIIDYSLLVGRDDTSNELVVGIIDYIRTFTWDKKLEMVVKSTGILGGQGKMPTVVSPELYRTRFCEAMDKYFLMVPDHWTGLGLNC
T2 sequence (Q9Y2I7 whole entry): as above

Row | Structure (SMILES) | IC50 [1] [nM] | Microsomal metabolic stability [2] | ADP-Glo kinase assay (%, 10 nM) [3] [%]
1 | Cc1cccc(/C=N/Nc2nc(N3CCOCC3)nc3c2ncn3-c2cccc(C)c2)c1 [Example 127, (E)-4-(6-(2-(3-methylbenzylidene)hydrazinyl)-9-(m-tolyl)-9H-purin-2-yl)morpholine] | ≤ 10 | Low (Low <8.8,) | 84.12
2 | Cc1cccc(/C=N/Nc2nc(N3CCOCC3)nc3c2ncn3-c2cccc(OC(F)(F)F)c2)c1 [Example 128, (E)-4-(6-(2-(3-methylbenzylidene)hydrazinyl)-9-(3-(trifluoromethoxy)phenyl)-9H-purin-2-yl)morpholine] | ≤ 10 | Low (Low <8.8,) | 65.10
3 | Cc1cccc(-c2ccn(-c3nc(N4CCOCC4)nc4c3ncn4-c3ccccc3)n2)c1 [Example 136, 4-(9-phenyl-6-(3-(m-tolyl)-1H-pyrazol-1-yl)-9H-purin-2-yl)morpholine] | ≤ 10 | Medium (Medium 8.8~48,) | 78.65
4 | Cc1cccc(/C=N/Nc2nc(N3CCOCC3)nc3c2ncn3-c2cccc(C)n2)c1 [Example 141, (E)-4-(6-(2-(3-methylbenzylidene)hydrazinyl)-9-(6-methylpyridin-2-yl)-9H-purin-2-yl)morpholine] | ≤ 10 | medium | 88.29
5 | Cc1cccc(/C=N/Nc2nc(N3CCOCC3)nc3c2ncn3-c2cc(C)n(C)n2)c1 [Example 147, (E)-4-(9-(1,5-dimethyl-1H-pyrazol-3-yl)-6-(2-(3-methylbenzylidene)hydrazinyl)-9H-purin-2-yl)morpholine] | ≤ 10 | Medium (Medium 8.8~48,) | 88.80
6 | Cc1cccc(/C=N/Nc2nc(N3CCOCC3)nc3c2nc(C)n3CC(=O)c2ccccn2)c1 [Example 157, (E)-2-(8-methyl-6-(2-(3-methylbenzylidene)hydrazinyl)-2-morpholino-9H-purin-9-yl)-1-(pyridin-2-yl)ethan-1-one] | 10 to 20 | Medium (Medium 8.8~48,) | 71.16
7 | Cc1cccc(/C=N/Nc2nc(N3CCOCC3)nc3c2nc(C)n3-c2ccccc2)c1 [Example 165, (E)-4-(8-methyl-6-(2-(3-methylbenzylidene)hydrazinyl)-9-phenyl-9H-purin-2-yl)morpholine] | 10 to 20 | medium | 73.72
8 | Cc1cccc(/C=N/n2cnc3c(Nc4ccncc4)nc(N4CCOCC4)nc32)c1 [Example 166, (E)-9-((3-methylbenzylidene)amino)-2-morpholino-N-(pyridin-4-yl)-9H-purin-6-amine] | ≤ 10 | medium | 90.77
9 | Cc1cccc(/C=N/Nc2nc(N3CCOCC3)nc3c(-c4ccncc4)cccc23)c1 [Example 212, (E)-4-(4-(2-(3-methylbenzylidene)hydrazinyl)-8-(pyridin-4-yl)quinazolin-2-yl)morpholine] | ≤ 10 | Low (Low <8.8,) | 88.34

Continued, values first:

Row | IC50 [1] [nM] | Microsomal metabolic stability [2] | ADP-Glo kinase assay (%, 10 nM) [3] [%] | Structure (SMILES)
10 | ≤ 10 | Low (Low <8.8,) | 89.94 | Cc1cccc(/C=N/Nc2nc(N3CCOCC3)nc3c2ncn3-c2cccc(F)c2)c1 [Example 129, (E)-4-(9-(3-fluorophenyl)-6-(2-(3-methylbenzylidene)hydrazinyl)-9H-purin-2-yl)morpholine]
11 | ≤ 10 | Medium (Medium 8.8~48,) | 86.76 | C(=N\Nc1nc(N2CCOCC2)nc2c1ncn2-c1ccccc1)/c1c[nH]c2ccccc12 [Example 132, (E)-4-(6-(2-((1H-indol-3-yl)methylene)hydrazinyl)-9-phenyl-9H-purin-2-yl)morpholine]
12 | ≤ 10 | low | 84.50 | Cc1cccc(/C=N/Nc2nc(N3CCOCC3)nc3c2ncn3-c2ccnc(C(F)(F)F)c2)c1 [Example 139, (E)-4-(6-(2-(3-methylbenzylidene)hydrazinyl)-9-(2-(trifluoromethyl)pyridin-4-yl)-9H-purin-2-yl)morpholine]
13 | ≤ 10 | Medium (Medium 8.8~48,) | 92.50 | Cc1cccc(/C=N/Nc2nc(N3CCOCC3)nc3c2ncn3-c2ccnc(C)c2)c1 [Example 140, (E)-4-(6-(2-(3-methylbenzylidene)hydrazinyl)-9-(2-methylpyridin-4-yl)-9H-purin-2-yl)morpholine]
14 | ≤ 10 | Medium (Medium 8.8~48,) | 83.75 | Cc1cccc(/C=N/Nc2nc(N3CCOCC3)nc3c2ncn3-c2ccc(F)cn2)c1 [Example 149, (E)-4-(9-(5-fluoropyridin-2-yl)-6-(2-(3-methylbenzylidene)hydrazinyl)-9H-purin-2-yl)morpholine]
15 | ≤ 10 | low | 80.47 | Cc1cccc(/C=N/Nc2nc(N3CCOCC3)nc3c2ncn3-c2cccc(N(C)C)c2)c1 [Example 202, (E)-N,N-dimethyl-3-(6-(2-(3-methylbenzylidene)hydrazinyl)-2-morpholino-9H-purin-9-yl)aniline]
16 | ≤ 10 | medium | 94.99 | Cc1cccc(/C=N/Nc2nc(N3CCOCC3)nc3c(-c4cnn(C)c4)cccc23)c1 [Example 209, (E)-4-(8-(1-methyl-1H-pyrazol-4-yl)-4-(2-(3-methylbenzylidene)hydrazinyl)quinazolin-2-yl)morpholine]
17 | ≤ 10 | Medium (Medium 8.8~48,) | 81.70 | Cc1cccc(/C=N/Nc2nc(N3CCOCC3)nc3c(-c4cccnc4)cccc23)c1 [Example 215, (E)-4-(4-(2-(3-methylbenzylidene)hydrazinyl)-8-(pyridin-3-yl)quinazolin-2-yl)morpholine]
